According to ChEMBL document CHEMBL5036317, “Identification of Unique Quinazolone Thiazoles as Novel Structural Scaffolds for Potential Gram-Negative Bacterial Conquerors” (J Med Chem, 2021):
Converted amounts (≈) assume the structure as drawn.

Key:
Klebsiella pneumoniae = experiment: Antibacterial activity against Klebsiella pneumoniae assessed as inhibition of bacterial growth measured after 24 hrs by two-fold serial dilution method; assay type: functional
Escherichia coli [1] = experiment: Antibacterial activity against Escherichia coli ATCC 25922 assessed as inhibition of bacterial growth measured after 24 hrs by two-fold serial dilution method; assay type: functional
Staphylococcus aureus [2] = experiment: Antibacterial activity against Staphylococcus aureus assessed as inhibition of bacterial growth measured after 24 hrs by two-fold serial dilution method; assay type: functional
[3] = Haemolytic activity in human erythrocytes incubated for 2 hrs; assay type: ADME, cell-based, Erythrocyte
Staphylococcus aureus [4] = experiment: Antibacterial activity against Staphylococcus aureus ATCC 29213 assessed as inhibition of bacterial growth measured after 24 hrs by two-fold serial dilution method; assay type: functional
Pseudomonas aeruginosa [5] = experiment: Antibacterial activity against Pseudomonas aeruginosa ATCC 27853 assessed as inhibition of bacterial growth measured after 24 hrs by two-fold serial dilution method; assay type: functional
Pseudomonas aeruginosa [6] = experiment: Antibacterial activity against Pseudomonas aeruginosa assessed as inhibition of bacterial growth measured after 24 hrs by two-fold serial dilution method; assay type: functional
Staphylococcus aureus [7] = experiment: Antibacterial activity against Staphylococcus aureus ATCC 25923 assessed as inhibition of bacterial growth measured after 24 hrs by two-fold serial dilution method; assay type: functional
Escherichia coli [8] = experiment: Antibacterial activity against Escherichia coli assessed as inhibition of bacterial growth measured after 24 hrs by two-fold serial dilution method; assay type: functional
Enterococcus faecalis = experiment: Antibacterial activity against Enterococcus faecalis assessed as inhibition of bacterial growth measured after 24 hrs by two-fold serial dilution method; assay type: functional
Acinetobacter baumannii = experiment: Antibacterial activity against Acinetobacter baumanii assessed as inhibition of bacterial growth measured after 24 hrs by two-fold serial dilution method; assay type: functional
Staphylococcus aureus [9] = experiment: Antibacterial activity against methicillin-resistant Staphylococcus aureus assessed as inhibition of bacterial growth measured after 24 hrs by two-fold serial dilution method; assay type: functional

SMILES	MIC (Klebsiella pneumoniae) [µg/mL]	MIC (Escherichia coli [1]) [µg/mL]	MIC (Staphylococcus aureus [2]) [µg/mL]	HC50 at 2 h [3] [µg/mL]	MIC (Staphylococcus aureus [4]) [µg/mL]	MIC (Pseudomonas aeruginosa [5]) [µg/mL]	MIC (Pseudomonas aeruginosa [6]) [µg/mL]	MIC (Staphylococcus aureus [7]) [µg/mL]	MIC (Escherichia coli [8]) [µg/mL]	MIC (Enterococcus faecalis) [µg/mL]	MIC (Acinetobacter baumannii) [µg/mL]	MIC (Staphylococcus aureus [9]) [µg/mL]
O=C(/C(=C/c1ccc(N2CCCCC2)cc1F)n1cnc2cc(Cl)ccc2c1=O)c1nccs1	512 (≈ 1030 µM)	512 (≈ 1030 µM)	512 (≈ 1030 µM)	181	2 (≈ 4.04 µM)	32 (≈ 64.6 µM)	128 (≈ 259 µM)	512 (≈ 1030 µM)	512 (≈ 1030 µM)	512 (≈ 1030 µM)	128 (≈ 259 µM)	512 (≈ 1030 µM)
O=C(/C(=C/c1ccc([N+](=O)[O-])cc1)n1cnc2cc(Cl)ccc2c1=O)c1nccs1	16 (≈ 36.5 µM)	2 (≈ 4.56 µM)	2 (≈ 4.56 µM)	> 250	2 (≈ 4.56 µM)	4 (≈ 9.11 µM)	4 (≈ 9.11 µM)	4 (≈ 9.11 µM)	64 (≈ 146 µM)	2 (≈ 4.56 µM)	4 (≈ 9.11 µM)	8 (≈ 18.2 µM)
O=C(/C(=C/c1ccccc1)n1cnc2cc(Cl)ccc2c1=O)c1nccs1	2 (≈ 5.08 µM)	4 (≈ 10.2 µM)	8 (≈ 20.3 µM)	222	2 (≈ 5.08 µM)	2 (≈ 5.08 µM)	4 (≈ 10.2 µM)	2 (≈ 5.08 µM)	8 (≈ 20.3 µM)	1 (≈ 2.54 µM)	4 (≈ 10.2 µM)	4 (≈ 10.2 µM)
O=C(/C(=C/c1cccs1)n1cnc2cc(Cl)ccc2c1=O)c1nccs1	32 (≈ 80 µM)	32 (≈ 80 µM)	16 (≈ 40 µM)	211	16 (≈ 40 µM)	64 (≈ 160 µM)	64 (≈ 160 µM)	16 (≈ 40 µM)	512 (≈ 1280 µM)	512 (≈ 1280 µM)	512 (≈ 1280 µM)	512 (≈ 1280 µM)
Cc1ccc(/C=C(/C(=O)c2nccs2)n2cnc3cc(Cl)ccc3c2=O)cc1	128 (≈ 314 µM)	1 (≈ 2.45 µM)	4 (≈ 9.81 µM)	> 250	4 (≈ 9.81 µM)	1 (≈ 2.45 µM)	4 (≈ 9.81 µM)	2 (≈ 4.9 µM)	32 (≈ 78.5 µM)	8 (≈ 19.6 µM)	1 (≈ 2.45 µM)	64 (≈ 157 µM)
O=C(/C(=C/c1cccc(Cl)c1)n1cnc2cc(Cl)ccc2c1=O)c1nccs1	128 (≈ 299 µM)	4 (≈ 9.34 µM)	32 (≈ 74.7 µM)	> 250	8 (≈ 18.7 µM)	4 (≈ 9.34 µM)	32 (≈ 74.7 µM)	8 (≈ 18.7 µM)	4 (≈ 9.34 µM)	128 (≈ 299 µM)	1 (≈ 2.33 µM)	8 (≈ 18.7 µM)
O=C(/C(=C/c1c[nH]c2cc(Cl)ccc12)n1cnc2cc(Cl)ccc2c1=O)c1nccs1	64 (≈ 137 µM)	2 (≈ 4.28 µM)	512 (≈ 1100 µM)	> 250	2 (≈ 4.28 µM)	64 (≈ 137 µM)	256 (≈ 548 µM)	2 (≈ 4.28 µM)	64 (≈ 137 µM)	2 (≈ 4.28 µM)	512 (≈ 1100 µM)	32 (≈ 68.5 µM)
